Experimental data as given in US20130302389A1, “COSMETIC COMPOSITION CONTAINING AT LEAST TWO OSMOLYTES WITH A MOISTURIZING OR ANTIAGING EFFECT” (LVMH Recherche, priority 2008, published 2013).

Test system: HSPA1A
Experiment: Stimulation of HSPA1A mRNA expression in normal human epidermal keratinocytes (RT-QPCR)
Assay type: cell-based
Conditions: 24 hours, mRNA by RT-QPCR relative to G3PDH, control (untreated cells) normalized to 100% expression
Experimental: Cell type: normal human keratinocytes (NHK) as an immersed monolayer, strongly post-confluent and at the third subculture.
Culture medium: low-calcium K-SFM (Invitrogen) supplemented with Epidermal Growth Factor (EGF Sigma) at 2.5 ng/ml, pituitary extract (EP Invitrogen) 2.5 μg/ml and gentamicin (Sigma) 25 μg/ml. For the treatments with the various compounds, this medium is replaced with K-SFM medium not supplemented with EGF and EP.
Treatment time: 24 hours with the various kosmotropes, and other molecules or extracts, and combinations thereof.
Test compounds: the taurine, D-trehalose, inositol and betaine (Sigma) are dissolved in the culture medium and tested at concentrations of 166 and 500 μg/ml, or, when this was not possible for reasons of solubility or cytotoxicity, at substantially lower concentrations.
The combination of these four compounds in proportions of 1/1/1/1 by weight is tested at the same concentrations.
Assays of the mRNA of HMSPA1A by RT-QPCR: at the end of the incubation period, the culture supernatants are removed and the cells, rinsed with PBS (Invitrogen), are covered with a solution of Tri-reagent (Sigma) and then frozen immediately at −80° C.
Extraction of the total RNA is performed according to the protocol of the Tri-reagent supplier (Sigma) and removal of the traces of DNA is performed with the DNA-free kit (Ambion). The reverse transcription reaction is performed using Oligo(dT) primers and the enzyme superscript II (Gibco).
The PCR (Polymerase Chain Reaction) reactions are performed using a Light Cycler (Roche Molecular Systems, Inc.) and according to the procedures recommended by the supplier. The pairs of primers used in this study allow amplification of the following fragments:
Homo sapiens heat shock protein HSP70 protein 1A (abbreviation HSPA1A; Gene bank NM 02045; fragment size 213 bp) and liver glyceraldehyde 3-phosphate dehydrogenase 1A (abbreviation G3PDH; Gene bank NM 02046; fragment size 269 bp) serving as the reference gene (caretaker gene) for determining the relative expression of the target HSPA1A.
The reaction medium (10 μl) is formed from the primers for the two target mRNAs (HSPA1A and G3PDH), 2.5 μl of tenfold-diluted cDNA, reaction mixture (Roche) containing the enzyme Taq DNA polymerase, SYBR Green I fluorochrome (which becomes incorporated into the double-stranded DNA during the elongation step), and MgCl2.
The incorporation of fluorescence into the amplified DNA is measured continuously in the course of the PCR cycles. For the same used marker, the later a sample leaves (high number of cycles), the lower the initial number of copies of mRNA.
Normal human keratinocyte cultures are treated for 24 hours with noncytotoxic doses (166 and 500 μg/ml) of each of the four osmolytes separately: taurine, D-trehalose, inositol and betaine. The transcriptional expression of HMSPA1A is measured by RT-PCR.
The control (untreated cells) is normalized to correspond to 100% expression.

Row | SMILES | stimulation of expression of HSPA1A (166 μg/ml) | stimulation of expression of HSPA1A (500 μg/ml)
1 | OC[C@H]1O[C@H](O[C@H]2O[C@H](CO)[C@@H](O)[C@H](O)[C@H]2O)[C@H](O)[C@@H](O)[C@@H]1O [D-trehalose] | 142% | 181%
2 | NCCS(=O)O [Hypotaurine, hypotaurine] | 379% | –
3 | C[N+](C)(C)CC(=O)O [betaine] | 52% | 85%
4 | O[C@H]1[C@H](O)[C@@H](O)[C@H](O)[C@@H](O)[C@H]1O [inositol] | 90% | 101%
5 | NCCS(=O)(=O)O [taurine] | 171% | 139%
